Test results: patent US20100324067A1, “TETRACYCLIC DIPYRANO-COUMARIN COMPOUNDS WITH ANTI-HIV AND ANTI-MYCOBACTERIUM TUBERCULOSIS ACTIVITIES” (priority 2007, published 2010)
In brackets after ≈: the same amount, converted by molar mass. Read-outs that look alike come from different tables or passages of the source.

Experiments:
HIV-1 = experiment: Inhibitory activity against HIV-1 (literature method, Chen et al. J Virol 1997); conditions: for inhibition at 1 µM: Human immunodeficiency virus 1, read-out: Anti-HIV (%, 1.0 μM)
Description: Inhibitory activity of the coumarin derivatives of the present invention against HIV-1.
Inhibitory activity of the compounds against HIV-1 is assayed using the literature method. The experimental conditions, procedures, reagents and so on of the experiment are referred to the reference of “ZHIWEI CHEN, PEI ZHOU, DAVID D. HO, et al. Genetically divergent strains of simian immuno-deficiency virus use CCR5 as a coreceptor for entry. Journal of Virology, 1997, 71(4): 2705-2714”.

[1] = system: Mycobacterium tuberculosis H37Rv (ATCC 27294); experiment: Microplate Alamar Blue Assay (MABA) in BACTEC 12B medium (TAACF screen); format: cell-based
[2] = read-out: anti-TB active compound (MIC90 less than 10 μg/mL), classification

Row | SMILES | MIC90 ([1]; MABA, H37Rv, read-out: MIC90) | MIC90 [1, 2] | IC50 ([1]; MABA, H37Rv, read-out: IC50) | melting point | further results
1 | CCCc1cc(=O)oc2c3c(c4c(c12)OC(C)(C)C=C4)OC(C)CC3=O (stereo not drawn) [Example 11, 6,6,10-trimethyl-4-n-propyl-2H,6H,12H-benzo[1,2-b:3,4-b′:5,6-b″]-tripyranyl-2,12-dione] |  |  |  |  | inhibition at 1 µM (HIV-1): 73.1%
2 | CCCc1cc(=O)oc2c3c(c4c(c12)OC(C)(C)C=C4)OC(CCC)CC3=O (stereo not drawn) [Example 14, 6,6-dimethyl-4,10-di-n-propyl-2H,6H,12H-benzo[1,2-b:3,4-b′:5,6-b″]-tripyranyl-2,12-dione] | 6.44 µg/mL (≈ 16.8 µM) | < 10 µg/mL |  |  | IC50 [1]: 5.72 µg/mL (≈ 15 µM); EC50 (HIV-1; Human immunodeficiency virus 1): 32.5 nM; inhibition at 1 µM (HIV-1): 61.9%; anti-HIV-1 activity in vitro compared to (+)-calanolide A (HIV-1; in words): much higher inhibitory activity; therapeutic index, in words (HIV-1; in words): high therapeutic index; Therapeutic index (TI) = 50% cytotoxicity doses/50% effective dose (HIV-1; value in brackets after EC50): 102-308
3 | CCCc1cc(=O)oc2c3c(c4c(c12)OC(C)(C)C=C4)OC(c1ccccc1)CC3=O (stereo not drawn) [Example 16, 6,6-dimethyl-4-n-propyl-10-phenyl-2H,6H,12H-benzo[1,2-b:3,4-b′:5,6-b″]-tripyranyl-2,12-dione] | > 100 µg/mL |  |  |  | IC50 [1]: 2.91 µg/mL (≈ 6.99 µM); inhibition at 1 µM (HIV-1): 62.7%
4 | CCCc1c(F)c(=O)oc2c3c(c4c(c12)OC(C)(C)C=C4)OC(C)CC3=O (stereo not drawn) [Example 31, 6,6,10-trimethyl-3-fluoro-4-n-propyl-2H,6H,12H-benzo[1,2-b:3,4-b′:5,6-b″]-tripyranyl-2,12-dione] |  |  |  |  | inhibition at 1 µM (HIV-1): 45.3%
5 | CCCCc1cc(=O)oc2c3c(c4c(c12)OC(CCC)C=C4)OC(C)CC3=O (stereo not drawn) [Example 37, 10-methyl-6-n-propyl-4-n-butyl-2H,6H,12H-benzo[1,2-b:3,4-b′:5,6-b″]-tripyranyl-2,12-dione] | 8.36 µg/mL (≈ 21.9 µM) | < 10 µg/mL | 5.33 µg/mL (≈ 13.9 µM) | 135 to 138 °C | 
6 | CCCCc1cc(=O)oc2c3c(c4c(c12)OC(CCCC)C=C4)OC(C)CC3=O (stereo not drawn) [Example 38] | 14.4 µg/mL (≈ 36.4 µM) |  | 10.4 µg/mL (≈ 26.3 µM) | 146 to 148 °C | 
7 | CCCC1C=Cc2c3c(c4oc(=O)c(F)c(CC)c4c2O1)C(=O)CC(C)O3 (stereo not drawn) [Example 39, 10-methyl-4-ethyl-6-n-propyl-3-fluoro-2H,6H,12H-benzo[1,2-b:3,4-b′:5,6-b″]-tripyranyl-2,12-dione] | 9.94 µg/mL (≈ 26.7 µM) | < 10 µg/mL | 5.09 µg/mL (≈ 13.7 µM) | 151 to 153 °C | 
8 | CCCCC1C=Cc2c3c(c4oc(=O)c(F)c(CC)c4c2O1)C(=O)CC(C)O3 (stereo not drawn) [Example 40] | 2.47 µg/mL (≈ 6.39 µM) | < 10 µg/mL | 1.58 µg/mL (≈ 4.1 µM) | 142 to 143 °C | 
9 | CCCc1cc(=O)oc2c3c(c4c(c12)OC(c1ccccc1)C=C4)OC(C)CC3=O (stereo not drawn) [Example 41, 10-methyl-4-n-propyl-6-phenyl-2H,6H,12H-benzo[1,2-b:3,4-b′:5,6-b″]-tripyranyl-2,12-dione] | 3.27 µg/mL (≈ 8.12 µM) | < 10 µg/mL | 2.92 µg/mL (≈ 7.25 µM) | 96 to 99 °C | 
10 | CCc1c(F)c(=O)oc2c3c(c4c(c12)OC(c1ccccc1)C=C4)OC(C)CC3=O (stereo not drawn) [Example 42, 10-methyl-4-ethyl-6-phenyl-3-fluoro-2H,6H,12H-benzo[1,2-b:3,4-b′:5,6-b″]-tripyranyl-2,12-dione] | 6.81 µg/mL (≈ 16.7 µM) | < 10 µg/mL | 5.56 µg/mL (≈ 13.7 µM) | 109 to 111 °C | 
11 | CCCc1c(F)c(=O)oc2c3c(c4c(c12)OC(c1ccccc1)C=C4)OC(C)CC3=O (stereo not drawn) [Example 43, 10-methyl-4-n-propyl-6-phenyl-3-fluoro-2H,6H,12H-benzo[1,2-b:3,4-b′:5,6-b″]-tripyranyl-2,12-dione] | 10.8 µg/mL (≈ 25.7 µM) |  | 6.42 µg/mL (≈ 15.3 µM) | 128 to 129 °C | 
12 | CCCCC1C=Cc2c3c(c4oc(=O)c(Cl)c(CCC)c4c2O1)C(=O)CC(C)O3 (stereo not drawn) [Example 49, 10-methyl-4-n-propyl-3-chloro-6-n-butyl-2H,6H,12H-benzo[1,2-b:3,4-b′:5,6-b″]-tripyranyl-2,12-dione] | 6.4 µg/mL (≈ 15.3 µM) | < 10 µg/mL | 4.62 µg/mL (≈ 11.1 µM) | 146 to 149 °C | 
13 | CCCc1cc(=O)oc2c3c(c4c(c12)OC(CCC)C=C4)OCC(C)C3=O (stereo not drawn) [Example 51] | 0.496 µg/mL (≈ 1.35 µM) | < 10 µg/mL | < 0.2 µg/mL | 148 to 150 °C | 
14 | CCCc1cc(=O)oc2c3c(c4c(c12)OC(CC)C=C4)OC(C)CC3=O (stereo not drawn) [Example 52, 10-methyl-4-n-propyl-6-ethyl-2H,6H,12H-benzo[1,2-b:3,4-b′:5,6-b″]-tripyranyl-2,12-dione] | 13.4 µg/mL (≈ 37.8 µM) |  | 11.8 µg/mL (≈ 33.2 µM) | 139 to 141 °C | 
15 | CCc1cc(=O)oc2c3c(c4c(c12)OC(CC)C=C4)OC(C)CC3=O (stereo not drawn) [Example 53, 10-methyl-4,6-diethyl-2H,6H,12H-benzo[1,2-b:3,4-b′:5,6-b″]-tripyranyl-2,12-dione] | 6.85 µg/mL (≈ 20.1 µM) | < 10 µg/mL | 6.1 µg/mL (≈ 17.9 µM) | 129 to 131 °C | 
16 | CCCc1c(Cl)c(=O)oc2c3c(c4c(c12)OC(CC)C=C4)OC(C)CC3=O (stereo not drawn) [Example 54, 10-methyl-4-n-propyl-6-ethyl-3-chloro-2H,6H,12H-benzo[1,2-b:3,4-b′:5,6-b″]-tripyranyl-2,12-dione] | 61.8 µg/mL (≈ 159 µM) |  | 36.5 µg/mL (≈ 93.9 µM) | 145 to 147 °C | 
17 | CCc1c(F)c(=O)oc2c3c(c4c(c12)OC(CC)C=C4)OC(C)CC3=O (stereo not drawn) [Example 55, 10-methyl-4,6-diethyl-3-fluoro-2H,6H,12H-benzo[1,2-b:3,4-b′:5,6-b″]-tripyranyl-2,12-dione] | 1.07 µg/mL (≈ 2.99 µM) | < 10 µg/mL | < 0.2 µg/mL | 144 to 146 °C | 
18 | CCCc1c(F)c(=O)oc2c3c(c4c(c12)OC(CC)C=C4)OC(C)CC3=O (stereo not drawn) [Example 56, 10-methyl-4-n-propyl-6-ethyl-3-fluoro-2H,6H,12H-benzo[1,2-b:3,4-b′:5,6-b″]-tripyrany 1-2,12-dione] | > 100 µg/mL |  | 62.3 µg/mL (≈ 167 µM) | 147 to 149 °C | 
19 | CCCc1cc(=O)oc2c3c(c4c(c12)OC(C)(C)C=C4)OC(CN=[N+]=[N-])CC3=O (stereo not drawn) [Example 58] | 54.9 µg/mL (≈ 139 µM) |  | 34.5 µg/mL (≈ 87.2 µM) | 116 to 117 °C | 
20 | CCCc1cc(=O)oc2c3c(c4c(c12)OC(C)(C)C=C4)OC(CNC(=O)Nc1ccc(F)cc1)CC3=O (stereo not drawn) [Example 60, 6,6-dimethyl-4-n-propyl-10-(p-fluorophenylureido)methylene-2H,6H,12H-benzo[1,2-b:3,4-b′:5,6-b″]-tripyranyl-2,12-dione] | > 100 µg/mL |  | 32.5 µg/mL (≈ 64.3 µM) | 119 to 120.5 °C | 
21 | CCCc1cc(=O)oc2c3c(c4c(c12)OC(C)(C)C=C4)OC(CNS(=O)(=O)c1ccc(NC(C)=O)cc1)CC3=O (stereo not drawn) [Example 61, 6,6-dimethyl-4-n-propyl-10-(p-acetylaminophenylsulfonamido)methylene-2H,6H,12H-benzo[1,2-b:3,4-b′:5,6-b″]-tripyranyl-2,12-dione] | > 100 µg/mL |  | 17.2 µg/mL (≈ 30.4 µM) | 127 to 128.5 °C | 
22 | CCCc1cc(=O)oc2c(-c3cccn3Cc3ccccn3)c(O)c3c(c12)OC(C)(C)C=C3 [Example 68, 5-hydroxy-6-(1′-(2-pyridyl)methylene-1′H-pyrrolyl-2′-ene)-2,2-dimethyl-10-n-propyl-2H-benzo-[2,3-f]-pyranyl-8-one] | 44.9 µg/mL (≈ 101 µM) |  | 33 µg/mL (≈ 74.6 µM) | 171 to 173 °C | 
23 | CCCc1cc(=O)oc2c3c(c4c(c12)OC(c1ccccc1)C=C4)OCC(C)C3=O (stereo not drawn) [Example 78, 4-n-propyl-6-phenyl-11-methyl-2H,6H,12H-benzo[1,2-b:3,4-b′:5,6-b″]-tripyranyl-2,12-dione] | > 100 µg/mL |  | 99 µg/mL (≈ 246 µM) | 187 to 189 °C | 
24 | CCCc1cc(=O)oc2c3c(c4c(c12)OC(C)C=C4)OC(C)CC3=O (stereo not drawn) [Example 80, 6,10-dimethyl-4-n-propyl-2H,6H,12H-benzo[1,2-b:3,4-b′:5,6-b″]-tripyranyl-2,12-dione] | 5.46 µg/mL (≈ 16 µM) | < 10 µg/mL | 3.42 µg/mL (≈ 10 µM) | 125 to 127 °C | 
25 | CCCc1c(F)c(=O)oc2c3c(c4c(c12)OC(C)C=C4)OC(C)CC3=O (stereo not drawn) [Example 84, 6,10-dimethyl-4-n-propyl-3-fluoro-2H,6H,12H-benzo[1,2-b:3,4-b′:5,6-b″]-tripyranyl-2,12-dione] | 27.7 µg/mL (≈ 77.3 µM) |  | 17.3 µg/mL (≈ 48.3 µM) | 150 to 153 °C | 
26 | C/C=C/C1C=Cc2c3c(c4oc(=O)cc(CCC)c4c2O1)C(=O)CC(C)O3 (stereo not drawn) [Example 85, 4-n-propyl-6-propenyl-1-methyl-2H,6H,12H-benzo[1,2-b:3,4-b′:5,6-b″]-tripyranyl-2,12-dione] | 4.86 µg/mL (≈ 13.3 µM) | < 10 µg/mL | 2.08 µg/mL (≈ 5.68 µM) | 136 to 138 °C | 
27 | CCc1c(F)c(=O)oc2c3c(c4c(c12)OCC(C)=C4)OC(C)CC3=O (stereo not drawn) [Example 93, 4-ethyl-3-fluoro-7,10-dimethyl-2H,6H,12H-benzo[1,2-b:3,4-b′:5,6-b″]-tripyranyl-2,12-dione] | > 100 µg/mL |  | 76.2 µg/mL (≈ 221 µM) | 118 to 120 °C | 
28 | CCOC1c2c3c(c4oc(=O)cc(CC)c4c2OCC1C)C(=O)CC(C)O3 (stereo not drawn) [Example 94, 8-ethyoxyl-7,10-dimethyl-4-ethyl-7,8,10,11-tetrahydro-6H-benzo[2,3-f;2′,3′-h]-tripyranyl-2,12-dione] | 16.7 µg/mL (≈ 44.8 µM) |  | 10 µg/mL (≈ 26.9 µM) | 174 to 176 °C | 
29 | CCCc1cc(=O)oc2c3c(c4c(c12)OCC(C)C4OCC)OC(C)CC3=O (stereo not drawn) [Example 95, 8-ethyoxyl-7,10-dimethyl-4-n-propyl-7,8,10,11-tetrahydro-6H-benzo[2,3-f;2′,3‘-h’ ]-trip yranyl-2,12-dione] | 34.5 µg/mL (≈ 89.2 µM) |  | 20.1 µg/mL (≈ 52 µM) | 198 to 201 °C | 
30 | CCCc1cc(=O)oc2c3c(c4c(c12)OC(c1ccccc1N)C=C4)OC(C)CC3=O (stereo not drawn) [Example 99] | 15.5 µg/mL (≈ 37.1 µM) |  | 7.49 µg/mL (≈ 17.9 µM) | 175 to 177 °C | 
